Literature values, collected in patent US20210299075A1 (priority 2020, published 2021).

Key:
[1] = tested on: herpes simplex virus, rhabdovirus, and other enveloped viruses; settings: Poli et al.
[2] = tested on: adenovirus; settings: Poli et al.; the only naked virus tested
[3] = Hendley et al.
[4] = frequent application

Row | Molecule | antiviral activity against enveloped viruses [1] | antiviral activity against adenovirus [2] | antiviral activity [3] | irritation of the skin [4]
1 | O=C(O)CC(O)(CC(=O)O)C(=O)O [citric acid] | effective | not effective | – | –
2 | CCO [ethyl alcohol] | – | – | performed poorly | –
3 | II [iodine] | – | – | all except iodine performed poorly | too irritating to the skin
4 | O=C(O)CC(O)C(=O)O (stereo not drawn) [malic acid] | effective | not effective | – | –
5 | CC(=O)C(=O)O [pyruvic acid] | effective | not effective | – | –
6 | O=C(O)CCC(=O)O [succinic acid] | effective | not effective | – | –
7 | benzalkonium chloride [benzalkonium chloride (BAK)] | – | – | performed poorly | –
